Source: US20220031680A1, “Donecopride As Neuroprotective Agent In the Treatment of Neurodegenerative Diseases” (priority 2018, published 2022)

Tests used:
[1] = system: GFAP; test: Astrogliosis (GFAP staining) in 5×FAD mouse brain; type: in vivo; conditions: 1 mg/kg twice a week for 3 months; for GFAP staining in frontal cortex or hippocampus: compared to controls; for decrease of GFAP staining in entorhinal brain slices: compared to vehicle
Procedure: 5×FAD mice received chronic treatments with drugs or vehicle according to 2 different protocols. In each experiment, drugs or vehicle solution were administered i.p. twice a week (1 mg/kg). In “Protocol 1”, mice (n=6-7 mice per group) were treated with compounds for two months, from 2 to 4 months of age. In “Protocol 2”, mice (n=7) were treated with compounds for three months, from 1 month to 4 months of age. At the end of each protocol, mice were anesthetized with a mixture of 100 mg/kg ketamine and 10 mg/kg xylazine in saline solution and perfused transcardially with PBS. Brains were quickly isolated on ice, the olfactory bulbs and cerebellum removed and the two hemispheres divided. One hemisphere was frozen on dry ice and stored at −80° C. for biochemical analysis, while the other was post-fixed in 4% PFA for immunohistochemistry (IHC).
Thirty-micrometer-thick sections were cut using a vibratome (Microm HM 650V, Thermo Scientific, Saint Herblain, France) and stored in cryoprotectant medium at −20° C. For the labeling of amyloid plaques, free-floating tissue sections of frontal cortex, hippocampus and entorhinal cortex (coordinates from the bregma: frontal cortex=1.98 mm, hippocampus=−1.94 mm, entorhinal cortex=−3.08 mm) were extensively washed in PBS and then incubated in blocking solution (PBS; 3% BSA; 0.1% Triton X-100) for 1 h. Sections were stained with Hoechst dye (1:1000, Life Technologies, Saint Aubin, France) for 15 minutes to detect cell nuclei and then with freshly prepared thioflavin T solution (#T3516-5G, Sigma-Aldrich) (final concentration: 0.01 mg/ml in blocking buffer) for 15 minutes. After washing in 70% ethanol for 5 minutes, samples were mounted on poly-lysine slides with coverslips. For GFAP (glial fibrillary acidic protein) staining, free-floating brain sections were blocked as before and incubated with polyclonal rabbit anti-GFAP (1:1000, Z0334, Dako, Les Ullis, France) at 4° C. overnight. After thioflavin T staining and washing with 70% ethanol, the secondary Alexafluor 594 goat anti-rabbit antibody (1:1000, A11012, Life Technologies) was added for 2 h. PBS washes and mounting were performed as described before.
Images were acquired with an Axiolmager Z1 microscope (Carl Zeiss S.A.S., Marly le Roi, France). Analysis of thioflavin T staining was performed blindly and data are presented as the mean number of particles per mm^2 in two to three tissue sections from the same brain area/animal (Image J software). GFAP expression was quantified using Image J software and results are expressed as area fractions.
28 female 5×FAD mice (C57BL/6J genetic background) were used in this study. Mice received vehicle or compounds (1 mg/kg) i.p., twice a week for three months, from 1 to 4 months of age.

[2] = system: spinal motor neurons injured with glutamate; test: Survival and neurite network of primary spinal motor neurons after glutamate injury; type: cell-based, rat; conditions: glutamate 5 μM 20 min
Procedure: Rat spinal cord motor neurons (MNs) were cultured as described by Martinou et al. (1992) Neuron. 8:737-744 and Wang et al. (2013) Hum. Mol. Genet. 22:4706-4719. Briefly, pregnant female rats of 14 days gestation (Rats Wistar; Janvier Labs France) were killed using a deep anesthesia with CO2 chamber and a cervical dislocation. Then, fetuses were removed from the uterus and immediately placed in ice-cold L15 Leibovitz medium with a 2% penicillin (10,000 U/ml) and streptomycin (10 mg/ml) solution (PS) and 1% bovine serum albumin (BSA).
Spinal cords were treated for 20 min at 37° C. with a trypsin-EDTA solution at a final concentration of 0.05% trypsin and 0.02% EDTA. The dissociation was stopped by addition of Dulbecco's modified Eagle's medium (DMEM) with 4.5 g/I glucose, containing DNAse I grade II (final concentration 0.5 mg/ml) and 10% fetal calf serum (FCS). Cells were mechanically dissociated by three forced passages through the tip of a 10-ml pipette. Cells were then centrifuged at 515×g for 10 min at 4° C. The supernatant was discarded, and the pellet was resuspended in a defined culture medium consisting of Neurobasal medium with a 2% solution of B27 supplement, 2 mmol/I L-glutamine, 2% PS solution, and 10 ng/ml brain-derived neurotrophic factor (BDNF). Viable cells were counted in a Neubauer cytometer, using the trypan blue exclusion test. Cells were seeded at a density of 20,000 per well in 96-well plates precoated with poly-L-lysine and were cultured at 37° C. in an air (95%)-CO2 (5%) incubator.
The medium was changed every 2 days. […]
Test compounds were tested in 96-well plate (n=6 culture wells per condition). The following conditions were assessed: […]
The following endpoints were automatically assessed: • Analysis of neuron survival (MAP-2 staining, number of neurons), • Analysis of neurite network (MAP-2 staining, total neurite length in μm), • Analysis of neurite network/neurons (neuronal network/number of MAP2 neurons), • Analysis of cytoplasmic TDP-43 in MAP-2 positive neurons (overlapping between MAP-2 and cytoplasmic TDP-43 in μm^2).

SMILES | GFAP staining in frontal cortex or hippocampus [1] | decrease of GFAP staining in entorhinal brain slices [1] [%] | concentrations significantly improving spinal motor neurons survival ([2]; 24 h) [nM] | concentrations significantly protecting the neurite network ([2]; spinal motor neurons) [nM] | ratio neurite network length/number of neurons ([2]; spinal motor neurons)
COc1cc(N)c(Cl)cc1C(=O)CCC1CCN(CC2CCCCC2)CC1 [Donecopride] | not significantly different | 54±10 | – | – | –
COc1cc(N)c(F)cc1C(=O)CCC1CCN(CC2CCCCC2)CC1 [Flucopride] | not significantly different | 51±5 | – | – | –
COc1cc(N)c(F)cc1C(=O)CCC1CCN(CC2CCCCCC2)CC1 [MR36014] | – | – | 1 | 1 | not modified
